Data: the NIST ThermoML archive (doi:10.1016/j.jct.2016.11.002)

Legend:
[1] = refractive index (Na D-line) (dimensionless); xn = mol fraction of the nth substance listed; settings: 100 kPa, Liquid, Standard Abbe refractometry
[2] = xn = mol fraction of the nth substance listed; settings: 100 kPa, Liquid; for speed of sound: Frequency=3 MHz, Single path-length method; for mass density: Vibrating tube method

CCCOCCO [2-propoxyethanol] + CCOC(=O)OCC
Settings	mass density, [2] [kg/m3]	refractive index, [1]	speed of sound, [2] [m/s]
298.15 K, x2 = 0	907.16	1.4103	1300.9
298.15 K, x2 = 0.0881	912.3	1.4089	1289.1
298.15 K, x2 = 0.1907	918.42	1.4074	1276.1
298.15 K, x2 = 0.2866	924.17	1.4062	1264
298.15 K, x2 = 0.3906	930.48	1.4046	1250.3
298.15 K, x2 = 0.484	936.17	1.4023	1237.8
298.15 K, x2 = 0.5955	943.04	1.3988	1223.4
298.15 K, x2 = 0.6907	948.97	1.3953	1211.7
298.15 K, x2 = 0.7908	955.29	1.3914	1200
298.15 K, x2 = 0.8939	961.94	1.3871	1188.5
303.15 K, x2 = 0	902.74	1.4081	1283.7
303.15 K, x2 = 0.0881	907.76	1.4068	1271.7
303.15 K, x2 = 0.1907	913.74	1.4054	1258.2
303.15 K, x2 = 0.2866	919.36	1.4042	1245.6
303.15 K, x2 = 0.3906	925.55	1.4026	1231.5
303.15 K, x2 = 0.484	931.11	1.4004	1218.7
303.15 K, x2 = 0.5955	937.84	1.3968	1203.9
303.15 K, x2 = 0.6907	943.65	1.3933	1192
303.15 K, x2 = 0.7908	949.85	1.3894	1180.1
303.15 K, x2 = 0.8939	956.4	1.385	1168.3
308.15 K, x2 = 0	898.32	1.4058	1266.4
308.15 K, x2 = 0.0881	903.19	1.4046	1254.2
308.15 K, x2 = 0.1907	909.01	1.4034	1240.2
308.15 K, x2 = 0.2866	914.52	1.4023	1227.1
308.15 K, x2 = 0.3906	920.55	1.4006	1212.7
308.15 K, x2 = 0.484	926.02	1.3984	1199.7
308.15 K, x2 = 0.5955	932.6	1.3948	1184.6
308.15 K, x2 = 0.6907	938.31	1.3912	1172.3
308.15 K, x2 = 0.7908	944.38	1.3873	1160.2
308.15 K, x2 = 0.8939	950.83	1.3828	1148.2
313.15 K, x2 = 0	893.89	1.4034	1249.2
313.15 K, x2 = 0.0881	898.63	1.4024	1236.8
313.15 K, x2 = 0.1907	904.33	1.4014	1222.3
313.15 K, x2 = 0.2866	909.68	1.4004	1208.8
313.15 K, x2 = 0.3906	915.57	1.3987	1194
313.15 K, x2 = 0.484	920.91	1.3964	1180.7
313.15 K, x2 = 0.5955	927.35	1.3928	1165.3
313.15 K, x2 = 0.6907	932.94	1.3892	1152.9
313.15 K, x2 = 0.7908	938.9	1.3851	1140.5
313.15 K, x2 = 0.8939	945.23	1.3805	1128.3
318.15 K, x2 = 0	889.45	1.4011	1231.9
318.15 K, x2 = 0.0881	894.03	1.4003	1219.3
318.15 K, x2 = 0.1907	899.58	1.3995	1204.5
318.15 K, x2 = 0.2866	904.8	1.3985	1190.6
318.15 K, x2 = 0.3906	910.54	1.3967	1175.3
318.15 K, x2 = 0.484	915.74	1.3944	1161.8
318.15 K, x2 = 0.5955	922.05	1.3908	1146.2
318.15 K, x2 = 0.6907	927.53	1.3872	1133.5
318.15 K, x2 = 0.7908	933.4	1.3831	1121
318.15 K, x2 = 0.8939	939.63	1.3782	1108.6
323.15 K, x2 = 0	885	1.3988	1215
323.15 K, x2 = 0.0881	889.44	1.3982	1201.9
323.15 K, x2 = 0.1907	894.82	1.3975	1186.8
323.15 K, x2 = 0.2866	899.91	1.3966	1172.5
323.15 K, x2 = 0.3906	905.53	1.3947	1156.9
323.15 K, x2 = 0.484	910.62	1.3924	1143.2
323.15 K, x2 = 0.5955	916.75	1.3888	1127.3
323.15 K, x2 = 0.6907	922.11	1.3852	1114.5
323.15 K, x2 = 0.7908	927.83	1.3809	1101.7
323.15 K, x2 = 0.8939	933.96	1.376	1089
